Measured values from patent US8809390B2, “Compound accelerating secretion of human-derived anti-microbial peptide, method for preparing same, and composition having same as active ingredient” (Neopharm Co., Ltd., priority 2010, dated 2014).

Assays:
CRAMP = test: Expression of antimicrobial peptide (CRAMP) in the skin of the atopic dermatitis animal model (immunohistochemistry); assay type: in vivo, mouse; details: animal model with atopic dermatitis, coated for four days; FIG. 4
Excerpt: An animal model with atopic dermatitis was constructed by coating the abdomens of 6-8 week aged nude mice with 5% oxazolone solution one time for percutaneous sensitization; after week, with 0.1% oxazolone solution every other day, six times, and 1% oxazolone solution every other day, four times. It has been reported that in the case of the animal model with atopic dermatitis using oxazolone, antimicrobial peptides were reduced in the skin (Man M-Q, Hatano Y, Lee S H, et al. Characterization of a hepten-induced, murine model with multiple features of atopic dermatitis: structural, immunologic, and biochemical changes following single versus multiple oxazolone challenges. J Invest Dermatol (2008) 128, 79-86). The skin of the animal model with atopic dermatitis constructed as above was coated with vehicle (PEG:EtOH=7:3) and Compound 1a of Example 1 diluted with the vehicle at a concentration of 0.1% once in the morning and in the afternoon for a total of four days. On the last day, thickness of the skin was measured. […]
The new compound synthesized according to Example 1 was coated for four days, and then skin tissue biopsy was conducted to form a paraffin block. […] After the reaction was completed, expression of CRAMP in the corneum of the skin was measured through a microscope. […]

nude mice [1] = test: Recovery of skin barrier damage (TEWL) in nude mice with acute skin barrier disruption; assay type: in vivo, mouse; details: D-Squame acute barrier damage, topical coating, TEWL at 0 h, 3 h, 6 h, 24 h, FIG. 2
Description: Skin barriers of nude mice were acutely damaged, and then effects of the new material represented in Example on recovery of acute skin barriers were assessed. D-Squame was used to induce skin barrier damage to left and right back regions of 6-8 week aged nude mice. Here, all the experimental groups were maintained to have no difference in trans epidermal water loss (TEWL) through measurement of the trans epidermal water loss (TEWL), and then vehicle (PEG:EtOH=7:3) and the new material represented in the example were coated thereon. The trans epidermal water loss (TEWL) was measured at the time of 0 h, 3 h, 6 h, and 24 h to confirm recovery of the skin barrier, and skin biopsies were conducted at the respective time, to thereby implement histological examination and other examinations.

nude mice [2] = test: Efficacy assessment on oxazolone animal model with atopic dermatitis (skin thickness); assay type: in vivo, mouse
Excerpt: An animal model with atopic dermatitis was constructed by coating the abdomens of 6-8 week aged nude mice with 5% oxazolone solution one time for percutaneous sensitization; after week, with 0.1% oxazolone solution every other day, six times, and 1% oxazolone solution every other day, four times. It has been reported that in the case of the animal model with atopic dermatitis using oxazolone, antimicrobial peptides were reduced in the skin (Man M-Q, Hatano Y, Lee S H, et al. Characterization of a hepten-induced, murine model with multiple features of atopic dermatitis: structural, immunologic, and biochemical changes following single versus multiple oxazolone challenges. J Invest Dermatol (2008) 128, 79-86). The skin of the animal model with atopic dermatitis constructed as above was coated with vehicle (PEG:EtOH=7:3) and Compound 1a of Example 1 diluted with the vehicle at a concentration of 0.1% once in the morning and in the afternoon for a total of four days. On the last day, thickness of the skin was measured. Corticosteroid based drug, Dexamethasone, which is an effective anti-inflammatory agent, was used as a positive control.

LL-37 = test: Promotion of secretion/expression of LL-37 in cultured human keratinocytes (RT-PCR, real-time PCR); assay type: cell-based; details: cultured human keratinocyte (HaCaT), 24 hours, with 1.7 mM calcium chloride; FIG. 1
Description: (§1) A medium containing 1% penicillin/streptomycin but not serum was used to culture human keratinocyte (HaCaT). The human keratinocyte was cultured in a 5% CO2 incubator at 37° C. The cells were seeded in each well of a 6-well plate at 3×10^5 cells/well, and then cultured for 48 hours. 1.7 mM calcium chloride and the new material synthesized from Example 1 were added thereto, and the cells were allowed to culture for 24 hours.
(§2) For assessment, at least one untreated control and at least one positive control were used together. 2.5 ng/mL of lipopolysaccharides (LPS), which is known to promote expression of hBD-2 and LL-37, was used as the positive control, and was allowed to react. After the reaction was completed, a supernatant was collected, and then the cells were washed with phosphate buffer saline (PBS) and collected by using a trypsin-EDTA solution, and stored in a tube. 1 ml of a triazole reagent was added to extract mRNA. […] The diluted RNA was analyzed at a wavelength between 260 nm and 280 nm, and quantitated. […]
(§3) 12.5 μl of PCR premix, 2 μl of primer sense (10 uM), 2 μl of primer antisense (10 uM), 1.5 μl of cDNA, and 7 μl of distilled water were inputted, and then PCR was carried out. […] The sample was migrated and then read out under UV in a dark room, and digitally photographed. Photos of the gel were analyzed by image processing software which quantifies the band intensities. […]

[3] = system: human β-defensin-2 (hBD-2); test: Promotion of secretion/expression of β-defensin-2 in cultured human keratinocytes (RT-PCR, real-time PCR); assay type: cell-based; details: cultured human keratinocyte (HaCaT), 24 hours, with 1.7 mM calcium chloride; FIG. 1
Description: as §1, §2, §3

With CCCCCC(=O)N[C@@H](Cc1ccc(O)cc1)C(=O)OC [Chemical Formula (Ia), (S)-Methyl 2-(hexanamido)-3-(4-hydroxyphenyl)propanoate] the “expression of antimicrobial peptides in the skin” value (CRAMP) was “increased”, the skin barrier recovery (nude mice [1]) was “significantly promoted” and the skin barrier function (nude mice [2]; animal model with atopic dermatitis, topical application) was “improved”. The anti-inflammatory efficacy (nude mice [2]; oxazolone atopic dermatitis nude mice, 0.1% in PEG:EtOH=7:3, coated twice daily for four days, skin thickness, FIG. 3) was “improved”, the “secretion of LL-37” value (LL-37) was “promotes secretion” and the “secretion of β-defensin-2” value [3] was “promotes secretion”. The melting point was 96 °C.
